Where a name gives a salt, the structure may show the parent alone.
How the values were obtained:
[1] = test system: NAADP-evoked Ca^2+ signals; settings: cited from earlier work
[2] = test system: NAADP-evoked Ca^2+ release; format: biochemical, Strongylocentrotus purpuratus; settings: for 2° Screen (sea urchin) Ca^2+ release log(IC50): printed as log(IC50), negative values, molar implied, NAADP 70 nM; for IC50: read-out: IC50 for inhibition of NAADP-evoked Ca2+ release
[3] = test system: specific ^32P-NAADP binding in sea urchin egg homogenates; assay: 32P-NAADP radioligand binding in sea urchin egg homogenate; parameters: species or system Strongylocentrotus purpuratus; settings: drug 30 μM, specific 32P-NAADP binding relative to vehicle
[4] = test system: NAADP-evoked Ca^2+ release; assay: Primary screen of NAADP-evoked Ca2+ release in sea urchin egg homogenate; format: biochemical, Strongylocentrotus purpuratus; settings: for 1° Screen (sea urchin) Ca^2+ release (% NAADP): peak NAADP-evoked Ca2+ release as % of control NAADP response: compound 25 μM, 6 min preincubation, NAADP 167 nM; for Effect on NAADP-evoked Ca2+ signal in primary screen (in words): 25 μM
[5] = test system: lysosomal labelling (LysoTracker Red), U2OS cells; assay: Counterscreen: LysoTracker Red; format: cell-based, human; settings: for activity at 30 µM: Homo sapiens, read-out: Counterscreen (human cells) LTR signal (% control); for Counterscreen (human cells) LTR signal (% control): drug 30 μM, minimum LTR F/F0 before GPN
[6] = test system: lysosomal Ca^2+ content, U2OS cells; assay: Counterscreen: GPN-evoked lysosomal Ca2+ release; format: cell-based, human; settings: for activity at 30 µM: Homo sapiens, read-out: Counterscreen (human cells) Ca^2+ release (% GPN); for Counterscreen (human cells) Ca^2+ release (% GPN) / Effect on GPN-mobilizable Ca2+ and LysoTracker (LTR) staining (in words): drug 30 μM; for Counterscreen (human cells) Ca^2+ release (% GPN): GPN 300 μM, peak fluo-4 F/F0
[7] = test system: cADPR-evoked Ca^2+ release; format: biochemical, Strongylocentrotus purpuratus
IP3-evoked Ca^2+ release = format: biochemical, Strongylocentrotus purpuratus

| Compound | 2° Screen (sea urchin) Ca^2+ release log(IC50) [2] | 2° Screen (sea urchin) NAADP binding (% inhibition) [3] [%] | 1° Screen (sea urchin) Ca^2+ release (% NAADP): peak NAADP-evoked Ca2+ release as % of control NAADP response [4] [%] | activity at 30 µM [5] [%] | activity at 30 µM [6] [%] | further results |
| --- | --- | --- | --- | --- | --- | --- |
| O=C1C[C@@H](c2ccc(O)cc2)Oc2cc(O)cc(O)c21 [naringenin] | – | – | – | – | – | IC50 [1]: ~180 µM |
| OCc1cc(C(O)CNCCCCCCOCCCCc2ccccc2)ccc1O (stereo not shown) [Salmeterol xinafolate, salmeterol xinafoate] | −4.94 ± 0.04 | −2.3 ± 13.6 | 18.7 ± 12 | 97.3 ± 7 | 97.4 ± 5 | – |
| CCN(CC)CCCCCCCCOC(=O)c1cc(OC)c(OC)c(OC)c1.Cl [TMB-8 hydrochloride] | −5.12 ± 0.06 | −16.6 ± 10.3 | 18.3 ± 3.2 | – | – | Counterscreen (human cells) LTR signal (% control) [5]: 71.8 ± 8%; Counterscreen (human cells) Ca^2+ release (% GPN) [6]: 68.8 ± 5% |
| COc1ccc([C@H]2N[C@H](C(=O)O)Cc3c2[nH]c2ccccc32)cc1CN1CCN(c2ccccc2F)CC1 (relative stereo) [trans-ned-19, trans-Ned-19] | – | – | – | – | – | IC50 [2]: 156 ± 3 µM |
| CN1CCN(CCCN2c3ccccc3Sc3ccc(Cl)cc32)CC1 [Prochlorperazine dimaleate, prochlorperazine dimaleate salt] | – | – | – | 24.3 ± 14 | 20.2 ± 17 | – |
| CCCCCCCCCC(=O)NC(CN1CCOCC1)C(O)c1ccccc1.Cl (stereo not shown) [PDMP, PDMP hydrochloride] | −4.80 ± 0.05 | 6.0 ± 0.5 | 18.3 ± 17 | – | – | Counterscreen (human cells) LTR signal (% control) [5]: 91.6 ± 13%; Effect on GPN-mobilizable Ca2+ and LysoTracker (LTR) staining (in words) [6]: no effect; Counterscreen (human cells) Ca^2+ release (% GPN) [6]: 91.4 ± 2% |
| CN1CCN(CCCN2c3ccccc3Sc3ccc(C(F)(F)F)cc32)CC1 [Trifluoperazine dihydrochloride, trifluoperazine dihydrochloride] | −5.13 ± 0.10 | −13.7 ± 13.7 | 19.7 ± 15 | 15.2 ± 9 | 5.8 ± 11 | – |
| C/C=C(/C)C(=O)O[C@H]1C(C)=C2[C@H]([C@@H]1OC(=O)CCCCCCC)[C@@](C)(OC(C)=O)C[C@H](OC(=O)CCC)[C@@]1(O)[C@H]2OC(=O)[C@@]1(C)O [thapsigargin] | – | – | – | – | – | Effect on NAADP-evoked Ca2+ signal in primary screen (in words) [4]: did not abrogate NAADP responsiveness |
| COc1ccc(CCCOC(Cn2ccnc2)c2ccc(OC)cc2)cc1 (stereo not shown) [SKF 96,365, SKF 96365 hydrochloride] | −5.29 ± 0.06 | −5.3 ± 5.7 | 6.3 ± 4.5 | 98.5 ± 5 | 98.1 ± 6 | Effect on GPN-mobilizable Ca2+ and LysoTracker (LTR) staining (in words) [6]: no effect |
| Cl.Cl.c1ccc(CCCN2CCN(CCOC(c3ccccc3)c3ccccc3)CC2)cc1 [GBR-12935 dihydrochloride] | −4.90 ± 0.13 | 3.4 ± 3.3 | 10.7 ± 7.0 | – | – | Counterscreen (human cells) LTR signal (% control) [5]: 67.5 ± 11%; Counterscreen (human cells) Ca^2+ release (% GPN) [6]: 61.1 ± 15% |
| Cc1nc(N=Nc2ccc(S(=O)(=O)[O-])cc2S(=O)(=O)[O-])c(COP(=O)([O-])[O-])c(C=O)c1O.[Na+].[Na+].[Na+].[Na+] [PPADS, PPADS tetrasodium salt] | −5.27 ± 0.01 | 84.8 ± 1.6 | – | – | – | IC50 [2]: 5.4 ± 0.2 µM; Counterscreen (human cells) LTR signal (% control) [5]: 92.1 ± 7%; Counterscreen (human cells) Ca^2+ release (% GPN) [6]: 91.3 ± 16% |
| CO/C1=C\C(C)=C\[C@@H](C)[C@@H](O)[C@@H](C)C/C(C)=C/C=C/[C@H](OC)[C@@H]([C@@H](C)[C@@H](O)[C@H](C)[C@@]2(O)C[C@@H](O)[C@H](C)[C@@H](C(C)C)O2)OC1=O [bafilomycin, bafilomycin A1] | – | – | – | – | – | Effect on GPN-mobilizable Ca2+ and LysoTracker (LTR) staining (in words) [6]: penetrant effects |
| CSc1ccc2c(c1)N(CCC1CCCCN1C)c1ccccc1S2 (stereo not shown) [Thioridazine hydrochloride, thioridazine hydrochloride] | – | – | – | 26.2 ± 18 | 20.5 ± 12 | – |
| CC1(C)C(=O)N(CCN2CCC(C(=O)c3ccc(F)cc3)CC2)c2ccccc21.Cl [LY-310,762 hydrochloride] | −4.75 ± 0.05 | −2.8 ± 3.8 | 16.3 ± 8.7 | – | – | Counterscreen (human cells) LTR signal (% control) [5]: 90.2 ± 8%; Counterscreen (human cells) Ca^2+ release (% GPN) [6]: 108.1 ± 11% |
| CCS(=O)(=O)Nc1cccc(C(=C2CCCCC2)c2cnc[nH]2)c1 [A-315456] | −4.44 ± 0.01 | 8.4 ± 1.2 | 13.0 ± 5.0 | – | – | Counterscreen (human cells) LTR signal (% control) [5]: 95.2 ± 4%; Effect on GPN-mobilizable Ca2+ and LysoTracker (LTR) staining (in words) [6]: no effect; Counterscreen (human cells) Ca^2+ release (% GPN) [6]: 97.1 ± 3% |
| O=C1NC(=O)C(c2ccccc2)(c2ccccc2)N1 [phenytoin] | – | – | – | – | – | Effect on NAADP-evoked Ca2+ signal in primary screen (in words) [4]: potentiation |
| Cl.Fc1ccc(C(OCCCc2c[nH]cn2)c2ccc(F)cc2)cc1 [IPFME, 3-(1H-Imidazol-4-yl)propyl di(p-fluorophenyl)methyl ether hydrochloride] | −5.22 ± 0.08 | 2.9 ± 2.1 | 13.7 ± 11 | 56.9 ± 8 | 51.3 ± 18 | – |
| COc1ccc2cc1Oc1ccc(cc1)C[C@H]1c3cc(c(OC)cc3CCN1C)Oc1c(O)c(OC)cc3c1[C@H](C2)N(C)CC3 [Fangchinoline] | – | – | – | – | – | Peak amplitude of NAADP-evoked Ca2+ release, % of control response [2]: 47 ± 2%; Effect on size of cADPR-evoked Ca2+ transients (in words) [7]: lesser effects; Effect on size of IP3-evoked Ca2+ transients (in words) (IP3-evoked Ca^2+ release): lesser effects |
| ST-148 | −4.80 ± 0.08 | 0.2 ± 4.3 | 16.7 ± 3.5 | – | – | Counterscreen (human cells) LTR signal (% control) [5]: 69.8 ± 13%; Counterscreen (human cells) Ca^2+ release (% GPN) [6]: 66.6 ± 5% |
| COC(=O)C1=C(C)NC(C)=C(C(=O)OC)C1c1ccccc1[N+](=O)[O-] [nifedipine] | – | – | – | – | – | Concentration acting as TPC pore blocker [1]: < 10 u M |
| OCCN1CCN(CCCN2c3ccccc3Sc3ccc(C(F)(F)F)cc32)CC1 [Fluphenazine dihydrochloride, fluphenazine dihydrochloride] | – | – | – | 69.8 ± 10 | 67.6 ± 14 | – |
| CCN(CC)CC#CCOC(=O)C(O)(c1ccccc1)C1CCCCC1 (stereo not shown) [Oxybutynin Chloride, oxybutynin chloride] | – | – | – | 59.2 ± 9 | 62.1 ± 4 | – |
| CC(=O)SCC(Cc1ccccc1)C(=O)NCC(=O)OCc1ccccc1 (stereo not shown) [Racecadotril, racecadotril] | −5.80 ± 0.03 | −8.3 ± 0.2 | 11.5 ± 6.0 | 92.8 ± 3 | 110 ± 4 | IC50 [2]: 1.6 ± 0.1 µM; Effect on GPN-mobilizable Ca2+ and LysoTracker (LTR) staining (in words) [6]: no effect |
| COc1ccc([C@@H]2Sc3ccccc3N(CCN(C)C)C(=O)[C@@H]2OC(C)=O)cc1 [diltiazem] | – | – | – | – | – | Concentration acting as TPC pore blocker [1]: < 10 u M |
| COc1cc(C(=O)OCCCN2CCCN(CCCOC(=O)c3cc(OC)c(OC)c(OC)c3)CC2)cc(OC)c1OC [Dilazep hydrochloride, dilazep hydrochloride] | −5.03 ± 0.11 | −10.9 ± 8.1 | 16.0 ± 3.0 | 69.6 ± 9 | 65.1 ± 5 | – |
| CN1CCC[C@@H]1CCO[C@](C)(c1ccccc1)c1ccc(Cl)cc1 [Clemastine fumarate, clemastine fumarate] | – | – | – | 70.9 ± 15 | 69.5 ± 13 | – |
| Cc1nc(N=Nc2cc(S(=O)(=O)O)c3cc([N+](=O)[O-])cc(S(=O)(=O)O)c3c2)c(COP(=O)(O)O)c(C=O)c1O [PPNDS] | – | – | 22 ± 4 | – | – | – |
